Test results published in ChEMBL document CHEMBL1201862, “PubChem BioAssay data set” (2004).
Calls of active or inactive are those of the source.

Tests used:
[1] = biological target: T1, E3 ubiquitin-protein ligase XIAP (Homo sapiens, UniProt P98170); experiment: small molecules displacing peptide from XIAP – biochemical, IAP family, fluorescence polarization (AID 1018); assay type: functional
[2] = biological target: T1, E3 ubiquitin-protein ligase XIAP; experiment: Counter Screen using XIAP-Bir3 for Chemical Antagonists of Bir1/2 domains of IAP-family anti-apoptotic proteins. [Related pubchem assays (depositor defined):AID1018, AID1449, AID1514, AID1638, AID1749, AID1750, AID488957, AID488963]
[3] = toxicity toward cultured mammalian cells – cell-based, plate reader, cherry-pick samples, cytotoxicity control, dose response (AID 504397); assay type: functional
CAAX prenyl protease 2 = biological target: T2, CAAX prenyl protease 2 (Saccharomyces cerevisiae S288c, UniProt Q03530); assay type: biochemical
T2 sequence (Q03530 whole entry): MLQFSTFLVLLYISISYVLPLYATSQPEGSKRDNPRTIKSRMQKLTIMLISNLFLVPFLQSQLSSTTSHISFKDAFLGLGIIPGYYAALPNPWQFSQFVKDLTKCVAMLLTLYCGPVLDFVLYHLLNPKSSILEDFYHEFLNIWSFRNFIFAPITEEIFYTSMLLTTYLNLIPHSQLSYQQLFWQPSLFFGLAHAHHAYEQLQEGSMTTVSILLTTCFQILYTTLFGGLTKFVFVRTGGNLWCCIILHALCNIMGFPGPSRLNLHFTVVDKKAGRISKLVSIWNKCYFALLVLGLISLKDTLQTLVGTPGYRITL

Nonstructural protein 1 = Nonstructural protein 1 (Influenza A virus, UniProt Q194T2); assay type: functional, Influenza A virus (A/California/07/2009(H1N1))
Sequence of Nonstructural protein 1 (Q194T2 whole entry): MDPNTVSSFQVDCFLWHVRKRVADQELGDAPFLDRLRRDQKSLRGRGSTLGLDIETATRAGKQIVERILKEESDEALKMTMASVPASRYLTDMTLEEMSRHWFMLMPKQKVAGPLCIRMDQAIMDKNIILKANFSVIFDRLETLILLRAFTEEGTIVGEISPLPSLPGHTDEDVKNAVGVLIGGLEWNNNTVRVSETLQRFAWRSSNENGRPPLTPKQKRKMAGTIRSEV

[4] = viability loss in THP-1 monocytes – THP-1 cells, cytotoxicity control for Vif-APOBEC3G degradation inhibitor project, dose response (AID 1117359); assay type: functional; conditions: THP-1
Hexokinase HKDC1 = biological target: T3, Hexokinase HKDC1 (Homo sapiens, UniProt Q2TB90); experiment: activation of HKDC1 glucose phosphorylation – biochemical, W721R variant, dose response (AID 504730); assay type: functional
T3 sequence (Q2TB90 whole entry): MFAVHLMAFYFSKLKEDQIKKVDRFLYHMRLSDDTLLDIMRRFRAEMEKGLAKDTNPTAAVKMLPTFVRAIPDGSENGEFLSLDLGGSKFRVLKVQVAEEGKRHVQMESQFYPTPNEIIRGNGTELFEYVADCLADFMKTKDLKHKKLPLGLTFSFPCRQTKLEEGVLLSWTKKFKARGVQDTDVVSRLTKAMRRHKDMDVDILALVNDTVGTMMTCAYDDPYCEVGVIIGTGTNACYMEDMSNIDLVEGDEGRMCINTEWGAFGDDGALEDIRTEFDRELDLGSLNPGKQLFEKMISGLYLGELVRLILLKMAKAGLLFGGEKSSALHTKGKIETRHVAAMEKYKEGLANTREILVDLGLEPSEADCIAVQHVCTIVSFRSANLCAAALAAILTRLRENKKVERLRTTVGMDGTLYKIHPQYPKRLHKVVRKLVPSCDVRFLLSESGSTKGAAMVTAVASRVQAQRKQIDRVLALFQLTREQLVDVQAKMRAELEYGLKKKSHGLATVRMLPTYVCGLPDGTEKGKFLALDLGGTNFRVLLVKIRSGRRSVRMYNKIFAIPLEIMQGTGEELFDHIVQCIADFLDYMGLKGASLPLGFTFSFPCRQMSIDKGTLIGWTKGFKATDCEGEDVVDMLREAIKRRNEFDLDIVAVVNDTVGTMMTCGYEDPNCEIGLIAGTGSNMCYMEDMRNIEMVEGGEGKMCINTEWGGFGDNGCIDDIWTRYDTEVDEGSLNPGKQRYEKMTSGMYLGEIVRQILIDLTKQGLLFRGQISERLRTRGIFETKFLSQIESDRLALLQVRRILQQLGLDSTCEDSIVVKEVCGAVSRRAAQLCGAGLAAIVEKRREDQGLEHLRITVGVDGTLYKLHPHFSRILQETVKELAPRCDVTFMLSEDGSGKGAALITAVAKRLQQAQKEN

Hexokinase-1 = Hexokinase-1 (Homo sapiens, UniProt P19367); experiment: HK1 enzyme activation by HKDC1 hits – biochemical, selectivity assay for HKDC1 activator project, dose response (AID 504762); assay type: functional
Sequence of Hexokinase-1 (P19367 whole entry): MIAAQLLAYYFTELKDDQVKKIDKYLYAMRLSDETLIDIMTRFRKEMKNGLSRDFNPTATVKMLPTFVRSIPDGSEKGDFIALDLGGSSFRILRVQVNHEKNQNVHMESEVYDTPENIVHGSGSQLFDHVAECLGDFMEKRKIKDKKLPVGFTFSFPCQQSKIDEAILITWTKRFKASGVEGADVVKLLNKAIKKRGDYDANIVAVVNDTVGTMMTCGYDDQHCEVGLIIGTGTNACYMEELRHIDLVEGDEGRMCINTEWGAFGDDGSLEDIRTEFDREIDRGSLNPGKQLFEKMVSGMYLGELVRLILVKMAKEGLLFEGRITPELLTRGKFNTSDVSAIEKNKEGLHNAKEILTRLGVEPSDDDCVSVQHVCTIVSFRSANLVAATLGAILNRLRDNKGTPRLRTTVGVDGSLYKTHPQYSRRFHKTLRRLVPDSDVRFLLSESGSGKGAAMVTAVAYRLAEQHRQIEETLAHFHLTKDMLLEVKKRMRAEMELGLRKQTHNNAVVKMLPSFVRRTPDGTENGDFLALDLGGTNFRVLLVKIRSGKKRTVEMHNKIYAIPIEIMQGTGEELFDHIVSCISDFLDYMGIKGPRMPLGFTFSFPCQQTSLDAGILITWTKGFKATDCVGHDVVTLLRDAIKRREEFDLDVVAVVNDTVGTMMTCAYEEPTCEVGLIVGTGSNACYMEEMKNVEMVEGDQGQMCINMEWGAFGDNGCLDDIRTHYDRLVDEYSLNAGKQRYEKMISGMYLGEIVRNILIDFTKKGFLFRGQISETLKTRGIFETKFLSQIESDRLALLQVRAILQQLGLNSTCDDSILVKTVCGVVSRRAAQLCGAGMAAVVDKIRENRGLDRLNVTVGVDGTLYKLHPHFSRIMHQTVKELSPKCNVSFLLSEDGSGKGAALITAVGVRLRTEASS

[5] = biological target: T4, Tyrosine-protein phosphatase non-receptor type 22 (Homo sapiens, UniProt Q9Y2R2); experiment: SAR LYP1 Fluorescent Assay using OMFP substrate for In Vitro dose response studies - Set 3. [Related pubchem assays (depositor defined):AID1779, AID1784, AID2140, AID2686]; assay type: functional
T4 sequence (Q9Y2R2 whole entry): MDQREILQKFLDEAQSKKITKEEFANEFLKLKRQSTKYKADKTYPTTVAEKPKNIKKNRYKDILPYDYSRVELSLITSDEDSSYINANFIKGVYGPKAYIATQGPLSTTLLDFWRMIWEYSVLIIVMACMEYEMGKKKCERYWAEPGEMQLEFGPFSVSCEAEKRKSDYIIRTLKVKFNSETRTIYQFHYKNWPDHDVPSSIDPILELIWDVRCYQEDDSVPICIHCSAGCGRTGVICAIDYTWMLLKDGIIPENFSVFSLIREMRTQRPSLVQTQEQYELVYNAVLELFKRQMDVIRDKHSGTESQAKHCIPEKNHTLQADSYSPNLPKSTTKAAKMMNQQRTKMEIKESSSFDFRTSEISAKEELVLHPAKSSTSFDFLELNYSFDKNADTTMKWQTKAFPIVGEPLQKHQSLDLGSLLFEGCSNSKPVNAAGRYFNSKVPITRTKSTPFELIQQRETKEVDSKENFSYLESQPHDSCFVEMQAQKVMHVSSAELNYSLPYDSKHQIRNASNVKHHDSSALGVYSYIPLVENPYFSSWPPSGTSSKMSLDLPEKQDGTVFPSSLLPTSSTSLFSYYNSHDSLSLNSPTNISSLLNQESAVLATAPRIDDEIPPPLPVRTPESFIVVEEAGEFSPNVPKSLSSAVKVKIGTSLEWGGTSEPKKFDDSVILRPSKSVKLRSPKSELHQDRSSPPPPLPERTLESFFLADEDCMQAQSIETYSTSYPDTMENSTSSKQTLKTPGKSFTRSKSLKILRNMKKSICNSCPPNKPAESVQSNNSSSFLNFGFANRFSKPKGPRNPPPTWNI

[6] = biological target: Tyrosine-protein phosphatase non-receptor type 12 (Homo sapiens, UniProt Q05209); experiment: SAR Selectivity Analysis of small molecule inhibitors of PEST using pCAP in a fluorescence assay. [Related pubchem assays (depositor defined):AID1779, AID1784, AID2135]; assay type: functional
Sequence of Tyrosine-protein phosphatase non-receptor type 12 (Q05209 whole entry): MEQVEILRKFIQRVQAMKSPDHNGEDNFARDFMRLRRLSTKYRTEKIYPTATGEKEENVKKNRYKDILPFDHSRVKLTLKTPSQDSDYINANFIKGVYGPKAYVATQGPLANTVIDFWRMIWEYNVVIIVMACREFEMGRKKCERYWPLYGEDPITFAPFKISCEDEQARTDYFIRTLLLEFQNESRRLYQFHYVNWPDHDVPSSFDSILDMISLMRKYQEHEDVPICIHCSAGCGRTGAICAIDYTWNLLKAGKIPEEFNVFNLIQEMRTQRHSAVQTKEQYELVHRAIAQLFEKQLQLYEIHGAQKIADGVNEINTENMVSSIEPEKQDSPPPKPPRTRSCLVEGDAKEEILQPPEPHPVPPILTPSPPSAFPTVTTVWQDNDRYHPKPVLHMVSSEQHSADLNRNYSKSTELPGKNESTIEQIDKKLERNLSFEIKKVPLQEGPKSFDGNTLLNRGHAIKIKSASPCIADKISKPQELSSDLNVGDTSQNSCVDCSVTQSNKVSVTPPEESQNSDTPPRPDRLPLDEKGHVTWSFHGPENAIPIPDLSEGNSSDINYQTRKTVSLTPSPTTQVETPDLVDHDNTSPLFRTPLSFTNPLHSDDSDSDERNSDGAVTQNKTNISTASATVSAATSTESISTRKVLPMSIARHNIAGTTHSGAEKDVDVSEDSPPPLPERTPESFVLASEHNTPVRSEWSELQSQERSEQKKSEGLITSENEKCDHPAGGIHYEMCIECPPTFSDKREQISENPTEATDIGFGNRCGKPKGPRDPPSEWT

[7] = biological target: T5, Tyrosine-protein phosphatase non-receptor type 7 (Homo sapiens, UniProt P35236); experiment: inhibition of hematopoietic tyrosine phosphatase HePTP – biochemical, set 2, SAR follow-up (AID 449736); assay type: functional
T5 sequence (P35236 whole entry): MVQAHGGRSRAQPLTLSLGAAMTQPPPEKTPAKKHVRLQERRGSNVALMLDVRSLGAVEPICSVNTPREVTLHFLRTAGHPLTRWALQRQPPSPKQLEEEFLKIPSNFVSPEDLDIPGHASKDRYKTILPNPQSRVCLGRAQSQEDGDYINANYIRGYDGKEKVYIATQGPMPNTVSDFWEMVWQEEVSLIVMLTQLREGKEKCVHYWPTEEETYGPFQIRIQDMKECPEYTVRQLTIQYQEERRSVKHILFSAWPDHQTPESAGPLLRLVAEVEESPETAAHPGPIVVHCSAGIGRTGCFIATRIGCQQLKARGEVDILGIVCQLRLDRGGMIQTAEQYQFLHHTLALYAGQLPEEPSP

[8] = biological target: T4, Tyrosine-protein phosphatase non-receptor type 22; experiment: SAR LYP1 Fluorescent Assay using OMFP substrate for In Vitro dose response studies - Set 2. [Related pubchem assays (depositor defined):AID1779, AID1784, AID2140, AID449726, AID488869]; assay type: functional
[9] = biological target: T4, Tyrosine-protein phosphatase non-receptor type 22; experiment: inhibition of lymphoid tyrosine phosphatase LYP – biochemical, pCAP fluorogenic substrate, fluorescence, set 3, SAR follow-up (AID 449727); assay type: functional
[10] = biological target: T4, Tyrosine-protein phosphatase non-receptor type 22; experiment: SAR LYP1 Fluorescent Assay using pCAP substrate for In Vitro dose response studies - Set 2. [Related pubchem assays (depositor defined):AID1779, AID1784, AID2135, AID449727]; assay type: functional
[11] = biological target: Peroxisome proliferator-activated receptor gamma (Homo sapiens, UniProt P37231); experiment: PPARg transcriptional activation, reporter cells – cell-based, luminescence, assay provider, dose response (AID 504447); assay type: functional
Sequence of Peroxisome proliferator-activated receptor gamma (P37231 whole entry): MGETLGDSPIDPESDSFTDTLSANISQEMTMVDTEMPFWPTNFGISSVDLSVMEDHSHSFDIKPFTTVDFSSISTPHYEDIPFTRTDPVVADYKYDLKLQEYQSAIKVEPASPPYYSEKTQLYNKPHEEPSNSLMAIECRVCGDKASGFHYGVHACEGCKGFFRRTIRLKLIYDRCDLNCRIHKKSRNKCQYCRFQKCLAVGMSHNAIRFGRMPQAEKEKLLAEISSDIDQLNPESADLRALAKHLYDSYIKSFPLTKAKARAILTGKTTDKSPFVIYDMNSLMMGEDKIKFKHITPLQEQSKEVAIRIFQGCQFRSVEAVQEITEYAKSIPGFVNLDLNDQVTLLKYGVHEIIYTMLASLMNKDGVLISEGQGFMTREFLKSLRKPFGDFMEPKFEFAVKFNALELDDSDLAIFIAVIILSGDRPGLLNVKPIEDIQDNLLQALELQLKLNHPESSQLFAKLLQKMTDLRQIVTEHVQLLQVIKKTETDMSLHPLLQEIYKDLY

[12] = viability of uninfected HEp-2 cells – cell-based, HTS, cytotoxicity control for RSV inhibitor project, dose response (AID 2410); assay type: functional; conditions: human respiratory syncytial virus
[13] = biological target: DNA damage-inducible transcript 3 protein (Mus musculus, UniProt P35639); assay type: functional, Cricetulus griseus
Sequence of DNA damage-inducible transcript 3 protein (P35639 whole entry): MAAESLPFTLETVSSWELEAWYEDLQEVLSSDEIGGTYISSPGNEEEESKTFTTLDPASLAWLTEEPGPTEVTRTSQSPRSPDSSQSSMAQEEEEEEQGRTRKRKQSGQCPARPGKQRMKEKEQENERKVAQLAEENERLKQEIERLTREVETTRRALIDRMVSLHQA

Orexin receptor type 2 [14] = biological target: T6, Orexin receptor type 2 (Homo sapiens, UniProt O43614); experiment: Counterscreen assay for antagonists of the orexin 1 receptor (OX1R; HCRTR1): Homogeneous Time Resolved Fluorescence (HTRF)-based cell-based dose response assay for antagonists of the orexin 2 receptor (OX2R; HCRTR2), run by assay provider.; assay type: functional
T6 sequence (O43614 whole entry): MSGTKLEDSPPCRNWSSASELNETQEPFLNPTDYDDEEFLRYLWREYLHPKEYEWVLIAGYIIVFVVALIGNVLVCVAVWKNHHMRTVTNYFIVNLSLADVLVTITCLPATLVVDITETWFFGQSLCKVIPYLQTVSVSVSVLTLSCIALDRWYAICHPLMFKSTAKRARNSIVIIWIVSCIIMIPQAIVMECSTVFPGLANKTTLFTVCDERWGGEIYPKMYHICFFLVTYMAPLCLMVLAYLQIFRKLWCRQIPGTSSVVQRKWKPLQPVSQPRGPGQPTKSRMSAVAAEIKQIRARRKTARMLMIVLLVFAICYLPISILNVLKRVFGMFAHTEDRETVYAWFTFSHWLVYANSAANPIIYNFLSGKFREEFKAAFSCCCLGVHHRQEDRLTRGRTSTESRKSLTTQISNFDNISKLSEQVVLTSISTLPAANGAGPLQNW

CHO-K1 = experiment: Counterscreen for antagonists of the orexin 1 receptor (OX1R; HCRTR1): Homogeneous time resolved fluorescence (HTRF)-based cell-based dose response assay to identify antagonists of the parental CHO-K1 cell line. [Related pubchem assays (depositor defined):AID434989, AID435008, AID463079, AID485270, AID492963, AID492964, AID492965, AID493232, AID504699, AID504701]; assay type: functional; conditions: Cricetulus griseus;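 note: potency for inhibition of ATP-stimulated IP1 production as antagonists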
[15] = biological target: T7, Orexin/Hypocretin receptor type 1 (Homo sapiens, UniProt O43613); experiment: Homogeneous Time Resolved Fluorescence (HTRF)-based cell-based high throughput dose response assay for antagonists of the orexin 1 receptor (OX1R; HCRTR1). [Related pubchem assays (depositor defined):AID434989, AID435008, AID463079, AID485270, AID492963, AID492964, AID492965, AID493232, AID504717, AID504718]; assay type: functional
T7 sequence (O43613 whole entry): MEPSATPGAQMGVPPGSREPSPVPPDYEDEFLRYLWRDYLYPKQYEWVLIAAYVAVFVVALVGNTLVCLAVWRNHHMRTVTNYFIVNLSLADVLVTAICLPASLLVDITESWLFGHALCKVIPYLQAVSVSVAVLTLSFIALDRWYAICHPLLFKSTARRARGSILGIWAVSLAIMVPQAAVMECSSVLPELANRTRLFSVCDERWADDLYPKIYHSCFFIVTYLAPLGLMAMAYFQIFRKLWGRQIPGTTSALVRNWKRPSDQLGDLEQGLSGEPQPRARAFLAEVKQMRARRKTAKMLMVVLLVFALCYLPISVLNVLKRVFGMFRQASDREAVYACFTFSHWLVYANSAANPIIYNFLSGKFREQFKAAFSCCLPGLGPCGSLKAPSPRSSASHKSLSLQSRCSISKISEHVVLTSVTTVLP

Orexin receptor type 2 [16] = biological target: T6, Orexin receptor type 2; experiment: Counterscreen assay for antagonists of the orexin 1 receptor (OX1R; HCRTR1): Fluorescence-based cell-based dose response assay for antagonists of the orexin 2 receptor (OX2R; HCRTR2), run by assay provider.; assay type: functional
[17] = biological target: T7, Orexin/Hypocretin receptor type 1; experiment: Fluorescence-based cell-based high throughput dose response assay for antagonists of the orexin 1 receptor (OX1R; HCRTR1). [Related pubchem assays (depositor defined):AID434989, AID435008, AID463079, AID485270, AID492963, AID492964, AID492965, AID493232, AID504717, AID504718]; assay type: functional
[18] = Counterscreen for antagonists of the orexin 1 receptor (OX1R; HCRTR1): Fluorescence-based cell-based high throughput dose response assay to identify antagonists of the parental CHO cell line. [Related pubchem assays (depositor defined):AID434989, AID435008, AID463079, AID485270, AID492963, AID492964, AID492965, AID493232, AID504699, AID504701]; assay type: functional
[19] = biological target: T8, Runt-related transcription factor 1/Core-binding factor subunit beta (Homo sapiens, UniProt Q01196+Q13951); experiment: disruptors of Runt domain/CBFb-SMMHC interaction – biochemical, FRET, Cerulean-Runt, Venus-CBFb-SMMHC, uHTS, […] (AID 1434); assay type: protein assay
T8 sequence (Q01196 whole entry, the tested form may be a part): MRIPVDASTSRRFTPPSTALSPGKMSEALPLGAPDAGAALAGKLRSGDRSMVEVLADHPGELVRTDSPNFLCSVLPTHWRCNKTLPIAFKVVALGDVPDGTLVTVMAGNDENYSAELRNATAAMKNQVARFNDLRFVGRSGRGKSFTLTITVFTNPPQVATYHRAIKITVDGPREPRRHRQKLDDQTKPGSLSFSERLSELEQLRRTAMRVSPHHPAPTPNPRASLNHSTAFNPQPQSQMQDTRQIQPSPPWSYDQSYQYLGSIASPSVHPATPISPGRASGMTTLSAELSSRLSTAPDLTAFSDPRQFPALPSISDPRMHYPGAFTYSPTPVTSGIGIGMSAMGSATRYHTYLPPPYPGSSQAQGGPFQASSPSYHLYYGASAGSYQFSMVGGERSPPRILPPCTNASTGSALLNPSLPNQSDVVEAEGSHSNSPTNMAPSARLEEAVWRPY
T8 sequence (Q13951 whole entry, the tested form may be a part): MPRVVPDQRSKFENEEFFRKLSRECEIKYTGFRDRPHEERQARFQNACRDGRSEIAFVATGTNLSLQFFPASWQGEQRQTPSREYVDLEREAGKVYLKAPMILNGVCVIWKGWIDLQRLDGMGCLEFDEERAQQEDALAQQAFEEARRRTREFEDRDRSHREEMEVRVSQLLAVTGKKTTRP

[20] = NIH-3T3 fibroblast cytotoxicity, dose response, cytotoxicity control, cell-based, fluorescence, Alamar Blue, secondary assay (AID 2327); assay type: functional;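 note: NIH-3T3 mouse fibroblasts cultured with fluconazole at 8 µg/mL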
[21] = biological target: T8, Runt-related transcription factor 1/Core-binding factor subunit beta; experiment: Runt domain/CBFb-SMMHC interaction disruptors – biochemical, TR-FRET (AID 1438); assay type: protein assay

T1 sequence (P98170 whole entry): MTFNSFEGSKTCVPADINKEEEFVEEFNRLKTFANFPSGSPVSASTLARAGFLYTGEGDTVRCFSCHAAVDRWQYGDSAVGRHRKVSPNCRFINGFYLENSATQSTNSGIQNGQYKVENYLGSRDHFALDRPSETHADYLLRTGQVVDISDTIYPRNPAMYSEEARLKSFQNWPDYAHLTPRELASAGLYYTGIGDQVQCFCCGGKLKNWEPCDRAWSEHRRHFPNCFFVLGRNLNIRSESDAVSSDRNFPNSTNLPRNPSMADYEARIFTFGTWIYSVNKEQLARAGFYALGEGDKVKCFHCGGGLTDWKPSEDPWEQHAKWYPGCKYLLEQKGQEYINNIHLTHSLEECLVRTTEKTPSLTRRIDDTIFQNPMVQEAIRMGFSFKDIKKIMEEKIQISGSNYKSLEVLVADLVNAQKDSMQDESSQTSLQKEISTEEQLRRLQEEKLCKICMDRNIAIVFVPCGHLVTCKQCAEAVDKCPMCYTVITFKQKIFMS

CC(=O)NCCc1csc(-c2ccccc2)n1
IC50 [1]: > 100 µM (not active) | IC50 [2]: > 100 µM (inactive)

O=C(c1cn(-c2ccccc2)nc1-c1cccs1)N1CCN(c2ccccn2)CC1
AC50 [3]: > 350 µM (inactive) | AC50 (CAAX prenyl protease 2): 3.87 µM (active)

CC(=NNC(=S)SCc1ccccc1)c1ccccn1
IC50 (Nonstructural protein 1): 12.2 µM (active) | CC50 [4]: < 0.08 µM (active) | EC50 (Hexokinase HKDC1): 1.61 µM (active) | EC50 (Hexokinase-1): > 80 µM (inactive)

O=C(O)COc1ccc(Nc2ccccc2)cc1
IC50 [5]: > 100 µM (inactive) | IC50 [6]: 45.1 µM (active) | IC50 [7]: 0.465 µM (active) | IC50 [8]: > 100 µM (inactive) | IC50 [9]: > 100 µM (inactive) | IC50 [10]: > 100 µM (inactive)

CCOc1ccc(C2c3[nH]c4ccccc4c3CCN2Cc2cccn2-c2ncccn2)cc1 (stereo unspecified)
EC50 [11]: 1.6 µM (active) | CC50 [12]: 16 µM (active)

COC(=O)Oc1ccc(/C=N/NC(=O)CSCc2ccccc2Br)cc1OC
Absolute IC50 (CHOP) [13]: 10 µM

CSc1cccc(N2CC(C(=O)NCCN3C(=O)S/C(=C\c4cccnc4)C3=O)CC2=O)c1 (stereo unspecified)
IC50 (Orexin receptor type 2 [14]): > 50 µM (inactive) | IC50 (CHO-K1): 10.5 µM (inactive) | IC50 [15]: 0.354 µM (active) | IC50 (Orexin receptor type 2 [16]): 20.6 µM (inactive) | IC50 [17]: 3.1 µM (active) | IC50 [18]: > 49.8 µM (inactive)

O=C(CN1CCN(c2ccc(O)cc2)CC1)NC(c1ccccc1)c1ccccc1
IC50 [19]: > 100 µM (inactive) | EC50 [20]: 28.5 µM (active) | IC50 [21]: > 100 µM (inactive)
